Target: Mcl-1 protein (UniProtKB Q07820) (Homo sapiens (Human), UniProt Q07820)
Test: Inhibition of Mcl-1 by the fluorescence polarisation assay (Example A, Method A)
Assay type: binding
Conditions: fluorescence polarization assay
Procedure: The relative binding potency of each compound was determined via Fluorescence Polarisation (FP). The method utilised a Fluorescein labelled ligand (Fluorescein-βAla-Ahx-A-REIGAQLRRMADDLNAQY-OH; MW 2,765) which binds to the Mcl-1 protein (such that Mcl-1 corresponds to the UniProtKB® primary accession number: Q07820) leading to an increased anisotropy measured in milli-polarisation (mP) units using a reader. The addition of a compound which binds competitively to the same site as the ligand will result in a greater proportion of unbound ligand in the system indicated by a decrease in mP units.
An 11 point serial dilution of each compound was prepared in DMSO and 2 μl transferred into flat bottomed, low binding, 384-well plate (final DMSO concentration 5%). 38 μl of buffer containing the Fluorescein labelled ligand (final concentration 1 nM) and Mcl-1 protein (final concentration 5 nM) was then added. Buffer components were 10 mM 4-(2-hydroxyethyl)-1-piperazineethanesulfonic acid [HEPES], 150 mM NaCl, pH 7.4 with the addition of 0.05% Tween 20.
Assay plates were incubated for 2 hours at room temperature before FP was measured on a […] Synergy Neo reader ([…], Cut off 510 nm) and mP units calculated. The binding of increasing doses of test compound was expressed as a percentage reduction in mP compared to a window established between ‘5% DMSO only’ and ‘100% inhibition’ controls. 11-point dose response curves were plotted with XL-Fit software using a 4-Parameter Logistic Model (Sigmoidal Dose-Response Model) and the inhibitory concentrations that gave a 50% reduction in mP (IC50) were determined. The Ki values were determined from the IC50 values according to Cer et al, Nucleic Acids Res, 2009, 37 (WebServer issue): W441-W445. Inhibition constants (Ki) are determined from complete binding inhibition curves (cKi) or from estimated from incomplete binding inhibition curves (eKi) in most cases due to low activity.

Chain of Mcl-1 protein (Q07820 whole entry): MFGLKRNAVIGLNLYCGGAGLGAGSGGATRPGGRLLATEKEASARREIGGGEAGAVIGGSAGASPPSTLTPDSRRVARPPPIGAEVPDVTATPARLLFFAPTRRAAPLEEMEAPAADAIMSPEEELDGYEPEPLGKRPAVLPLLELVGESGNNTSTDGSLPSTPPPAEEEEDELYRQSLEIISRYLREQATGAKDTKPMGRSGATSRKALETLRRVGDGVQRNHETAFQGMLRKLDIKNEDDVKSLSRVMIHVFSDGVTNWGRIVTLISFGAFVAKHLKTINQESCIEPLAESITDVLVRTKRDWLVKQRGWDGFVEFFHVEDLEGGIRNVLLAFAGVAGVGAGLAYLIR

In the case of `Cc1cc2nccc(OCCCC3Cc4ccccc4[C@]34CC[C@@](Nc3cccc(Cl)c3)(C(=O)O)CC4)c2s1` (stereo partly drawn) [Example 446, (1r,4r)-4-(3-chloroanilino)-2′-{3-[(2-methylthieno[3,2-b]pyridin-7-yl)oxy]propyl}-2′,3′-dihydrospiro[cyclohexane-1,1′-indene]-4-carboxylic acid], the Ki is reported as 134 nM.
For `O=C(O)[C@]1(Nc2cccc(Cl)c2)CC[C@]2(CC1)C(c1ccc(Cl)cc1)=Cc1ccccc12` [Example 298, (1s,4s)-4-(3-chloroanilino)-2′-(4-chlorophenyl)spiro[cyclohexane-1,1′-indene]-4-carboxylic acid], the Ki was 1110 nM.
`CCC1=C(C)[C@]2(CC[C@](Nc3cccc(Cl)c3)(C(=O)O)CC2)c2ccccc21` [Example 205, (1r,4r)-4-(3-chloroanilino)-3′-ethyl-2′-methylspiro[cyclohexane-1,1′-indene]-4-carboxylic acid] showed a Ki of 1710 nM.
`CC1(C)CCc2ncnc(OCCCC3Cc4ccccc4[C@]34CC[C@@](Nc3cccc(Cl)c3)(C(=O)O)CC4)c21` (stereo partly drawn) [Example 466, (1r,4r)-4-(3-chloroanilino)-2′-{3-[(5,5-dimethyl-6,7-dihydro-5H-cyclopenta[d]pyrimidin-4-yl)oxy]propyl}-2′,3′-dihydrospiro[cyclohexane-1,1′-indene]-4-carboxylic acid] showed a Ki of 56.6 nM.
`COc1ccc(CCCC2=Cc3ccccc3[C@]23CC[C@@](Nc2cccc(Cl)c2)(C(=O)O)CC3)cc1` [Example 155, (1r,4r)-4-(3-chloroanilino)-2′-[3-(4-methoxyphenyl)propyl]spiro[cyclohexane-1,1′-indene]-4-carboxylic acid] was tested, and the Ki was 710 nM.
`O=C(O)[C@]1(Nc2cccc(Cl)c2)CC[C@@]2(CC1)c1ccccc1CC2CCCOc1ccnc2c1CCC2F` (stereo partly drawn) [Example 476, (1r,4r)-4-(3-chloroanilino)-2′-{3-[(7-fluoro-6,7-dihydro-5H-cyclopenta[b]pyridin-4-yl)oxy]propyl}-2′,3′-dihydrospiro[cyclohexane-1,1′-indene]-4-carboxylic acid] was tested, and the Ki was 169 nM.
Molecule `COc1ccc2c(c1)[C@]1(CC[C@@](Nc3cccc(Br)c3)(C(=O)O)CC1)C1(CCCC1)C2` [Example 95, (1r,4r)-4-(3-bromoanilino)-6′-methoxy-3′H-dispiro[cyclohexane-1,1′-indene-2′,1″-cyclopentane]-4-carboxylic acid] has a Ki of 1190 nM.
`O=C(O)[C@]1(Nc2cccc(Cl)c2)CC[C@@]2(CC1)c1ccccc1CC2[C@H]1C[C@@H]1COc1cccnc1` (single isomer, unassigned) [Example 115, (1r,4r)-4-(3-chloroanilino)-2′-[(1R*,2S*)-2-{[(pyridin-3-yl)oxy]methyl}cyclopropyl]-2′,3′-dihydrospiro[cyclohexane-1,1′-indene]-4-carboxylic acid] showed a Ki of 1140 nM.
`O=C(O)[C@]1(Nc2cccc(Br)c2)CC[C@@]2(CC1)c1ccccc1CC2CCc1cccnc1` (stereo partly drawn) [Example 164, (1r,4r)-4-(3-bromoanilino)-2′-[2-(pyridin-3-yl)ethyl]-2′,3′-dihydrospiro[cyclohexane-1,1′-indene]-4-carboxylic acid] gave a Ki of 600 nM.
Work on `Cc1cnccc1OCCCOC1=Cc2ccccc2[C@]12CC[C@@](Nc1cccc(Br)c1)(C(=O)O)CC2` [Example 193, (1s,4s)-4-(3-bromoanilino)-2′-{3-[(3-methylpyridin-4-yl)oxy]propoxy}spiro[cyclohexane-1,1′-indene]-4-carboxylic acid] yielded a Ki of 531 nM.
`COc1cccc([C@@H]2Cc3ccccc3[C@]23CC[C@@](Nc2cccc(Br)c2)(C(=O)O)CC3)c1` [Example 219, (1r,2′S,4S)-4-(3-bromoanilino)-2′-(3-methoxyphenyl)-2′,3′-dihydrospiro[cyclohexane-1,1′-indene]-4-carboxylic acid] showed a Ki of 381 nM.
Molecule `CC1=C(C(C)C)c2ccccc2[C@]12CC[C@@](Nc1cccc(Br)c1)(C(=O)O)CC2` [Example 204, (1r,4r)-4-(3-bromoanilino)-2′-methyl-3′-(propan-2-yl)spiro[cyclohexane-1,1′-indene]-4-carboxylic acid] has a Ki of 22400 nM.
`O=C(O)[C@]1(Nc2cccc(Cl)c2)CC[C@@]2(CC1)c1ccccc1CC2c1cccc(Cl)c1` (single isomer, unassigned) [Example 343, (1r,4r)-4-(3-chloroanilino)-2′-(3-chlorophenyl)-2′,3′-dihydrospiro[cyclohexane-1,1′-indene]-4-carboxylic acid] was tested, and the Ki was 978 nM.
Molecule `O=C(O)[C@]1(Nc2cccc(Cl)c2)CC[C@]2(CC1)C(CCCOc1cccc3[nH]ccc13)=Cc1ccccc12` [Example 434, (1r,4r)-4-(3-chloroanilino)-2′-{3-[(1H-indol-4-yl)oxy]propyl}spiro[cyclohexane-1,1′-indene]-4-carboxylic acid] has a Ki of 93.5 nM.
`CC[C@H](COc1cccnc1)C[C@H]1Cc2ccccc2[C@]12CC[C@@](Nc1cccc(Cl)c1)(C(=O)O)CC2` [Example 540, (1r,2′S,4S)-4-(3-chloroanilino)-2′-[(2S)-2-{[(pyridin-3-yl)oxy]methyl}butyl]-2′,3′-dihydrospiro[cyclohexane-1,1′-indene]-4-carboxylic acid] showed a Ki of 185 nM.
For `O=C(O)[C@]1(Nc2cccc(Br)c2)CC[C@@]2(CC1)c1ccccc1C[C@@H]2c1ccccc1` [Example 211, (1r,2′R,4R)-4-(3-bromoanilino)-2′-phenyl-2′,3′-dihydrospiro[cyclohexane-1,1′-indene]-4-carboxylic acid], the Ki was 11000 nM.
Molecule `O=C(O)[C@]1(Nc2cccc(Cl)c2)CC[C@@]2(CC1)c1ccccc1CC2c1ccc(Oc2cccnc2)cc1` (stereo partly drawn) [Example 367, (1r,4r)-4-(3-chloroanilino)-2′-{4-[(pyridin-3-yl)oxy]phenyl}-2′,3′-dihydrospiro[cyclohexane-1,1′-indene]-4-carboxylic acid] has a Ki of 443 nM.
Work on `Cc1c[nH]c2nccc(OCCCC3Cc4ccccc4[C@]34CC[C@@](Nc3cccc(Cl)c3)(C(=O)O)CC4)c12` (stereo partly drawn) [Example 458, (1r,4r)-4-(3-chloroanilino)-2′-{3-[(3-methyl-1H-pyrrolo[2,3-b]pyridin-4-yl)oxy]propyl}-2′,3′-dihydrospiro[cyclohexane-1,1′-indene]-4-carboxylic acid] yielded a Ki of 110 nM.
`COc1ccc(C2Cc3ccccc3[C@]23CC[C@@](Nc2cccc(Cl)c2)(C(=O)O)CC3)c(Cl)c1` (single isomer, unassigned) [Example 269, (1r,4r)-4-(3-chloroanilino)-2′-(2-chloro-4-methoxyphenyl)-2′,3′-dihydrospiro[cyclohexane-1,1′-indene]-4-carboxylic acid] showed a Ki of 11100 nM.
For `CC[C@H]1c2ccccc2[C@]2(CC[C@@](Nc3cccc(Cl)c3)(C(=O)O)CC2)[C@H]1C` (racemic) [Example 207, (1r,2′RS,3′SR,4r)-4-(3-chloroanilino)-3′-ethyl-2′-methyl-2′,3′-dihydrospiro[cyclohexane-1,1′-indene]-4-carboxylic acid], the Ki was 4660 nM.
For `COc1ccc2c(c1)[C@]1(CC[C@](Nc3cccc(Br)c3)(C(=O)O)CC1)C(Cc1ccccc1)C2` (stereo partly drawn) [Example 126, (1s,4s)-2′-benzyl-4-(3-bromoanilino)-6′-methoxy-2′,3′-dihydrospiro[cyclohexane-1,1′-indene]-4-carboxylic acid], the Ki was 9150 nM.
Molecule `CN1c2ccc(/C=C/c3ccccc3)cc2[C@]2(CC[C@](Nc3cccc(Br)c3)(C(=O)O)CC2)C1=O` [Example 9, (1r,4r)-4-(3-bromoanilino)-1′-methyl-2′-oxo-5′-[(E)-2-phenylethenyl]-1′,2′-dihydrospiro[cyclohexane-1,3′-indole]-4-carboxylic acid] has a Ki of 4820 nM.
With `Cc1cc(C)cc(C2=Cc3ccccc3C23CCC(Nc2cccc(Br)c2)(C(=O)O)CC3)c1` (single isomer, unassigned) [Example 238, 4-(3-bromoanilino)-2′-(3,5-dimethylphenyl)spiro[cyclohexane-1,1′-indene]-4-carboxylic acid] the Ki was 57800 nM.
Work on `O=C(O)[C@]1(Nc2cccc(Cl)c2)CC[C@@]2(CC1)c1ccccc1CC2CCOc1ccnc2ccsc12` (stereo partly drawn) [Example 186, (1r,4r)-4-(3-chloroanilino)-2′-{2-[(thieno[3,2-b]pyridin-7-yl)oxy]ethyl}-2′,3′-dihydrospiro[cyclohexane-1,1′-indene]-4-carboxylic acid] yielded a Ki of 123 nM.
`O=C(O)[C@]1(Nc2cccc(Cl)c2)CC[C@]2(CC1)C(c1ccccc1Cl)=Cc1ccccc12` [Example 311, (1s,4s)-4-(3-chloroanilino)-2′-(2-chlorophenyl)spiro[cyclohexane-1,1′-indene]-4-carboxylic acid] gave a Ki of 559 nM.
`O=C(O)[C@]1(Nc2cccc(Cl)c2)CC[C@@]2(CC1)c1ccccc1CC2CCOCc1ccccc1` (stereo partly drawn) [Example 396, (1r,4r)-2′-[2-(benzyloxy)ethyl]-4-(3-chloroanilino)-2′,3′-dihydrospiro[cyclohexane-1,1′-indene]-4-carboxylic acid] was tested, and the Ki was 321 nM.
Molecule `COc1cccc(C2=Cc3ccccc3[C@]23CC[C@@](Nc2cccc(Cl)c2)(C(=O)O)CC3)c1` [Example 253, (1s,4s)-4-(3-chloroanilino)-2′-(3-methoxyphenyl)spiro[cyclohexane-1,1′-indene]-4-carboxylic acid] has a Ki of 836 nM.
